Results published in patent US10894777B2, “TG2 inhibitor piperazine compounds and uses thereof” (UNIVERSITY OF OTTAWA, priority 2016, dated 2021).

How the values were obtained:
SCC-13 cells = experiment: Migration (scratch wound closure) assay, SCC-13 cells; assay type: cell-based, human; details: for cell migration (scratch wound closure): 0-12 h
Experimental: (§1) Migration assay. SCC13-Control-shRNA or SCC13-TG2-shRNA2 cells (2×10^6) were plated in 10 cm dishes and grown as monolayer cultures in spheroid medium until confluent. A 10 μl pipette tip was used to prepare areas void of cells and the dishes were washed to remove the dislodged cells. Images were collected, at 0-18 h after the scratch using the 10× objective, and the width of the opening was measured as a function of time as an index of cell migration potential.
as §1, with “Cells (2 million)” for “SCC13-Control-shRNA or SCC13-TG2-shRNA2 cells (2×10^6)”, “The ability of the cells to close the scratch wounds was monitored” for “Images were collected,”, “(Adhikary, G. et al., PLoS One 8:e84324, 2013).” for “potential.”

[1] = test system: SCC-13, HaCaT, A431, TU159, HNSCC3 cells; experiment: Spheroid formation, matrigel invasion and migration assays in five cell lines (Example 11); assay type: cell-based, human; details: FIGS. 38-42
Experimental: SCC13 cells were grown for one week as monolayer in spheroid media; cells were harvested with 0.25% trypsin and plated with 2 mL of spheroid media at 15,000 cells per well in a 6-well dish. Cells were counted on day 0 and then treated with the indicated concentration of the indicated compound. Control was 0.1% DMSO. Cells were counted using a cell counter, 2 wells per treatment on each day. Values shown are mean±SEM, n=1.
(§2) HaCaT cells were grown for one week as a monolayer in spheroid media. Cells were harvested with 0.25% trypsin and plated with 2 mL of spheroid media at 15,000 cells per well in a 6-well dish. Cells were counted on day 0 and then treated with the indicated concentration of the indicated compound. Control was 0.1% DMSO. Cells were counted using a cell counter, 2 wells per treatment on each day. Values shown are mean±SEM, n=1.
as §2, with “A431” for “HaCaT”
TU159 cells were harvested with 0.25% trypsin and plated with 2 mL of spheroid media at 40,000 cells per well in a 6 well low-attachment plate. The cells were grown as spheroids for 8 days. On day 8 the spheroids were treated with the indicated concentration of the indicated compound. Control was 0.1% DMSO. The same 2 wells per treatment were counted on each day. Values shown are mean±SEM, n=1.
as §2, with “HNSCC3” for “HaCaT”, “The same” for “Cells were counted using a cell counter,”, “treatment were counted” for “treatment”, “n=1. […]” for “n=1.”

TG2 = molecular target: T1, TG2 (Homo sapiens, UniProt P21980); experiment: In situ transglutaminase assay, ionomycin-activated, GBM cell lines; assay type: cell-based; set-up: endogenous in cells; details: 10 μM; for ionomycin-activated in situ transamidating activity of TG2: U87 cells, 1 h pretreatment, 1 μM ionomycin 3 h
T1 sequence (P21980 1-687): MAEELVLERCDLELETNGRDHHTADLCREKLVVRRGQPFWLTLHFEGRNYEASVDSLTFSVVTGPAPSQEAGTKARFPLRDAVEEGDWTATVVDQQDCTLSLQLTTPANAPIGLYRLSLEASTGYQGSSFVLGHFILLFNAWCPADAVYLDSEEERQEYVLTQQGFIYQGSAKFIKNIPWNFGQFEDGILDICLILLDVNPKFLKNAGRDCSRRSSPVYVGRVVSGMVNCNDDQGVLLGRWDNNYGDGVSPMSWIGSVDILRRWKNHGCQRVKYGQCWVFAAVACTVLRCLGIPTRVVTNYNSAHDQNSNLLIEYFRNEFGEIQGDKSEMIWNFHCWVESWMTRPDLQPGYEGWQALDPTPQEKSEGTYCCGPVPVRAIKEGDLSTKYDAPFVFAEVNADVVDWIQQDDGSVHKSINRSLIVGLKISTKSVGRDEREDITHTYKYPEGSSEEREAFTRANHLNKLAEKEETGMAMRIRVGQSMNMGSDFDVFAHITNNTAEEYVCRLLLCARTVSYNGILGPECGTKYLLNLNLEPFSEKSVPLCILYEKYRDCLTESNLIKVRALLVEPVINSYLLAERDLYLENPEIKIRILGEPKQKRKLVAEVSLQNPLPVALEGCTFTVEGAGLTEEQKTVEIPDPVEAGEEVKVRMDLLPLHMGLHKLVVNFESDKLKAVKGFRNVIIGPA
Experimental: In situ transglutaminase assay. In situ transamidating activity measurement was conducted as described previously (Gundemir, S. and Johnson, G. V., PLoS ONE 4(7):e6123, 2009) with slight modifications. […] In a high protein binding 96-well plate (Falcon), 10 μg of protein was loaded in a total of 50 μL homogenization buffer and the plate was incubated at 4° C. overnight. The next day, 200 μL of blocking buffer (5% BSA, 0.01% Tween 20 in borate saline [100 mM boric acid, 20 mM Na-borate and 0.76 mM NaCl]) was added to each sample and the plate was incubated at 37° C. for 1 h. Each well was then rinsed 3 times with rinsing buffer (1% BSA, 0.01% Tween 20 in borate saline) and incubated with 1 μg/μL Horseradish peroxidase conjugated neutravidin (Pierce) in a total of 100 μL rinsing buffer at room temperature for 1 h. […] After 20 minutes, the reaction was stopped by addition of 50 μL of 1 M sulfuric acid and read at 493 nm wavelength.

C=CC(=O)NCCCC[C@H](NC(=O)OCc1ccccc1)C(=O)NCCOCCOCCNS(=O)(=O)c1cccc2c(N(C)C)cccc12 [NC9]
cell migration (scratch wound closure) (SCC-13 cells): inhibited cell migration | cell migration (SCC-13 cells; 20 μM, 0-18 h): reduced | spheroid formation, matrigel invasion and migration [1]: inhibit spheroid formation, matrigel invasion and migration | in situ transamidation activity of TG2 induced by ionomycin (TG2; U87, 1321N, U251, T98G cell lines): completely inhibited | ionomycin-activated in situ transamidating activity of TG2 (TG2): inhibit ionomycin-activated transamidating activity of TG2

C=CC(=O)NCCCC[C@H](NC(=O)OCc1ccccc1)C(=O)N1CCN(S(=O)(=O)c2cccc3c(N(C)C)cccc23)CC1 [VA4, (S)-benzyl(6-acrylamido-1-(4-((5-(dimethylamino)naphthalen-1-yl)sulfonyl)piperazin-1-yl)-1-oxohexan-2-yl)carbamate]
cell migration (scratch wound closure) (SCC-13 cells): inhibited cell migration | spheroid formation, matrigel invasion and migration [1]: inhibit spheroid formation, matrigel invasion and migration | ionomycin-activated in situ transamidating activity of TG2 (TG2): inhibit ionomycin-activated transamidating activity of TG2

C=CC(=O)NCCCC[C@H](NC(=O)OCc1ccccc1)C(=O)N1CCN(C(=O)c2cc3ccc(O)cc3oc2=O)CC1 [VA5, (S)-Benzyl(6-acrylamido-1-(4-(7-hydroxy-2-oxo-2H-chromene-3-carbonyl)piperazin-1-yl)-1-oxohexan-2-yl)carbamate]
cell migration (scratch wound closure) (SCC-13 cells): inhibited cell migration | spheroid formation, matrigel invasion and migration [1]: inhibit spheroid formation, matrigel invasion and migration | ionomycin-activated in situ transamidating activity of TG2 (TG2): inhibit ionomycin-activated transamidating activity of TG2
